The results in this text go back to ChEMBL document CHEMBL1201862, “PubChem BioAssay data set” (2004).

The target of experiment [1] is Lysosomal acid glucosylceramidase (Homo sapiens, UniProt P04062). The experiment in a line: Dose response cell-based high throughput screening assay to identify enhancers of beta-glucosidase activity. [Related pubchem assays: 784 ]. Type of experiment: functional.
The target of experiment [2] is Acyl-homoserine lactone acylase PvdQ (Pseudomonas aeruginosa (strain LESB58), UniProt Q9I194). Description: PvdQ acylase enzyme activity blockers – biochemical, fluorescence, plate reader and imaging, cherry-picks, dose response (AID 493231).
A short description of experiment [3]: luciferase reporter signal suppression in cells – H4 neuroglioma cells, luminescence, dose response (AID 1990). Format: functional, cell-based. For orientation: A reporter such as luciferase makes a cellular process visible.
Experiment [4] can be described thus: Luminescence Cell-Based Dose Response HTS to Identify Inhibitors of 5'UTR Stem-Loop Driven Prion Protein mRNA Translation in H4 Neuroglioblastoma Cells. [Related pubchem assays: 1827 (Project Summary), 1813 (Primary HTS)]. Type of experiment: functional.
Experiment [5] in a line: alpha-synuclein stem-loop luciferase translation blockers – H4 neuroglioma cells, luminescence, confirmation (AID 1988). Format: functional, cell-based.
Experiment [6] has as its target T1, C-C chemokine receptor type 6 (Homo sapiens, UniProt P51684).
T1 sequence (P51684 whole entry): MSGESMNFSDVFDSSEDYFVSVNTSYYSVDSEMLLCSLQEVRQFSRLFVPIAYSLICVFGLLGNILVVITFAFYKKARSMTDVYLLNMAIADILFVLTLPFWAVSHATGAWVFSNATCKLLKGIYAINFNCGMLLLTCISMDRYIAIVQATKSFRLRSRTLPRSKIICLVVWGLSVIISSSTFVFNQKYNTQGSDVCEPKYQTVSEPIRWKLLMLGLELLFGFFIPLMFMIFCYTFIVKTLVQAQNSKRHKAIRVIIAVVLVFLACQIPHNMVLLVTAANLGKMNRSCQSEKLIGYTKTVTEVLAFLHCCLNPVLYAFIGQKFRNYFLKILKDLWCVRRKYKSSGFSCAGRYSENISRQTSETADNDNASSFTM
The experiment in a line: antagonism of CCR6 beta-arrestin recruitment – cell-based, luminescent beta-arrestin readout, dose response (AID 504728). Type of experiment: functional. Background: Recruitment of arrestin is a read-out of receptor activation apart from second messengers.

Another experiment has as its target Beta-galactosidase (Escherichia coli, UniProt Q8VNN2). Description: detection-enzyme interference by beta-gal modulators – biochemical, E. coli enzyme, set 3, artefact control for CCR6 antagonist project, dose response (AID 504712). Type of experiment: functional.
Experiment [7] deals with T2, Voltage-gated N-type calcium channel alpha-1B subunit/Amyloid beta A4 precursor protein-binding family A member 1 (Homo sapiens, UniProt Q00975+Q02410). Type of experiment: protein assay.
Experiment [8] addresses T2, Voltage-gated N-type calcium channel alpha-1B subunit/Amyloid beta A4 precursor protein-binding family A member 1. Type of experiment: protein assay. This is another data set of the same source.
The target is the same in experiment [9]. The experiment in a line: disruptors of Mint-PDZ/N-type channel peptide interaction – biochemical, HTRF, SAR follow-up (AID 2489). Type of experiment: functional. In general terms: Time-resolved FRET reads energy transfer from a long-lived donor to a nearby acceptor.
For a further experiment, the target named is Protein Rev (Human immunodeficiency virus type 1 group M subtype B (isolate HXB2)(HIV-1), UniProt P04618). The experiment in a line: blockers of HIV Rev/RRE RNA complex – biochemical, fluorescence polarization, HIV-1, dose response (AID 434976). On the set-up: species or system Human immunodeficiency virus 1.
Experiment [10] concerns the target Female germline-specific tumor suppressor gld-1 (Caenorhabditis elegans, UniProt Q17339). The experiment in a line: blockers of GLD-1/TGE RNA complex formation – biochemical, fluorescence polarization, C. elegans, dose response (AID 2802).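 Further: fluorescence polarization of labeled TGE RNA bound by purified gld-1 protein.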
The test system of experiment [11] is Vero. The experiment in a line: Vero cell viability after compound exposure – synthesized analogs, set II, cytotoxicity control for West Nile virus antiviral project, SAR follow-up (AID 2402). Type of experiment: functional. The following applies: Chlorocebus sabaeus.
The subject of experiment [12] is Vero. The experiment in a line: host cell viability loss, Vero E6 – synthesized analogs, cytotoxicity control for West Nile virus antiviral project, SAR follow-up (AID 2244). Format: functional. The following applies: Chlorocebus sabaeus.
The nature of experiment [13]: A Cell Based Assay for the Identification of Probe candidate Compounds with Anti- Venezuelan Equine Encephalitis virus. [Related pubchem assays: 2409, 2419, 1621, 2238, 2405, 2024, 2065, 2402, 2414, 1635, 1650, 2244 ]. Format: functional.
The nature of experiment [14]: luciferase reporter signal reduction – luminescence, H4-C neuroglioblastoma cells, dose response (AID 2458).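 Further: H4 neuroglioblastoma cells stably carrying a luciferase reporter gene fusion.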 Type of experiment: functional, cell-based.
The next experiment in a line: cells. Type of experiment: functional, cell-based.
The target in experiment [15] is T3, Heat shock factor protein 1 (Mus musculus, UniProt P38532).
T3 sequence (P38532 whole entry): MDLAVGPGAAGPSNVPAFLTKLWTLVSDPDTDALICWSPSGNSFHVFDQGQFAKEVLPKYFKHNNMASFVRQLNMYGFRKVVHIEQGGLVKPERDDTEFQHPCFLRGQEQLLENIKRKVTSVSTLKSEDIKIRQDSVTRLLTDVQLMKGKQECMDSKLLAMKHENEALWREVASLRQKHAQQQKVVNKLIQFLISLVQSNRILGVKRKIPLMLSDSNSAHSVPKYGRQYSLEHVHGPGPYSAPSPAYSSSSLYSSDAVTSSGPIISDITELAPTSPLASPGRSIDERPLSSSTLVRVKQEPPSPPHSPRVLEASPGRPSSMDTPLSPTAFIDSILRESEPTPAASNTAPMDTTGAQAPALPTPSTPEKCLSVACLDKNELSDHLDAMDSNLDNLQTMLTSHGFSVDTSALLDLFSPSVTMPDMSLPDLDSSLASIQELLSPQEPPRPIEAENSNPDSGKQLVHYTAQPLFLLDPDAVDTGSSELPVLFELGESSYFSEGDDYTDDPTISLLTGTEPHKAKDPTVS
The experiment in a line: decrease of HSF1-responsive luciferase luminescence – cell-based, NIH3T3, dose retest, confirmation (AID 2382).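 Further: NIH3T3 fibroblasts with HSF1-driven luciferase reporter stressed by proteasome inhibitor MG132; luminescence from HSF1-driven luciferase expression after 8 hours of MG132 stress.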 Type of experiment: functional.

Experiment [16] has as its target Luciferin 4-monooxygenase (Photinus pyralis, UniProt P08659). The experiment in a line: inhibition of purified Photinus pyralis luciferase – biochemical, luminescence, dose response (AID 1891).
Experiment [17] is described as follows: Luminescence Cell-Based Dose Confirmation HTS to Identify Inhibitors of Platelet Dense Granule Release. [Related pubchem assays: 1663 (Primary HTS), 1678 (Summary of Project)]. Type of experiment: functional.
A short description of experiment [18]: Luminescence-based counterscreen assay for KLF5 inhibitors: dose response cell-based high throughput screening assay to identify cytotoxic compounds using the IEC-6 intestinal epithelial cell line. [Related pubchem assays: 1700 (Primary screen.), 1834 (Confirmation screen.), 1858 (Summary AID.), 1905 (Counterscreen.)]. Format: functional.
The nature of experiment [19]: alpha-synuclein stem-loop translation blockers – luminescence, H4 neuroglioblastoma cells, dose confirmation, confirmation (AID 2454).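 Further: H4 neuroglioblastoma cells carrying an alpha-synuclein 5'UTR luciferase reporter; potency for inhibition of the luciferase signal.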 Format: functional, cell-based.
Experiment [20] has as its system Vero. The experiment in a line: cells. Type of experiment: functional, cell-based. The following applies: Chlorocebus sabaeus.
Experiment [21] concerns Vero. Description: cells. Format: functional. Conditions: Chlorocebus sabaeus.
Experiment [22] in a line: reduction of Shn3 3'UTR-driven luciferase in osteoblasts – cell-based, Clone20 osteoblasts, firefly luciferase, cherry-picked, dose response (AID 624132).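 Further: firefly luciferase luminescence from reporter carrying the Shn3 3'UTR in osteoblasts.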 Type of experiment: functional.
The nature of experiment [23]: loss of viability in HepG2 cells – cell-based, CellTiter-Glo, cherry-picked, cytotoxicity control for Shn3 inhibitor project, dose response (AID 624134). Format: functional.
Experiment [24] deals with T4, RNA-binding protein pos-1 (Caenorhabditis elegans, UniProt G5EF15).
T4 sequence (G5EF15 whole entry): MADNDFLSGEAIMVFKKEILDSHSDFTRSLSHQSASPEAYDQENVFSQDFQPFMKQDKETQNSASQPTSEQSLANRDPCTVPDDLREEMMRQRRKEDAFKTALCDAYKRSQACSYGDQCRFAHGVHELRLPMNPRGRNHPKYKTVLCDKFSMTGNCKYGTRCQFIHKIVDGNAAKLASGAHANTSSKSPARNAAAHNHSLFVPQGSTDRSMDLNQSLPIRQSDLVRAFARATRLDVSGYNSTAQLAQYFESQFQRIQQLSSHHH
Description: disruptors of C. elegans POS-1 RNA interaction – biochemical, fluorescence polarization, dose response (AID 1964).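 Further: purified POS-1 fused to maltose binding protein made in E. coli; potency of compounds blocking POS-1 binding to fluorescent RNA.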

Experiment [25] deals with T5, Zinc finger protein mex-5 (Caenorhabditis elegans, UniProt Q9XUB2).
T5 sequence (Q9XUB2 whole entry): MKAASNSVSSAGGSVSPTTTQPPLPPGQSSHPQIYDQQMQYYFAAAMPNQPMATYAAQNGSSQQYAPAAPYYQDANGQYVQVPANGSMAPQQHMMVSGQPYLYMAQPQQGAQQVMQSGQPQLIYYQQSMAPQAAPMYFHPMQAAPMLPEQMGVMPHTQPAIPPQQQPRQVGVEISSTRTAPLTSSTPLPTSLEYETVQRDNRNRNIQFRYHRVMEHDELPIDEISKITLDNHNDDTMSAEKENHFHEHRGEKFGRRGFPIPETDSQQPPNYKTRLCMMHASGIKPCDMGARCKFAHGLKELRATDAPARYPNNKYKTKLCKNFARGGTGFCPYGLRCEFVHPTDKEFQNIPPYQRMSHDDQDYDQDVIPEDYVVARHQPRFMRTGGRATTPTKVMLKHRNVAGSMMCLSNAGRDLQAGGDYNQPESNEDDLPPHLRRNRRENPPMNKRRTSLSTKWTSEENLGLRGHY
Description: potency of MEX-5 RNA-binding blockers – biochemical, C. elegans, fluorescence polarization, dose response (AID 1960).

Active and inactive are the calls of the source.

For orientation: EC50 means the concentration at which the effect is half-maximal. As to `O=C1Nc2ccccc2C(O)(C(=O)NC2CC2)N1c1ccc(Cl)c(Cl)c1` (configuration not stated), the EC50 in [1] was > 50 µM (not active).

As usually defined, the AC50 is the concentration at which the activity in the assay is half-maximal. As for `CCCCCC1CC(COc2ccccc2)OC1=O` (configuration not stated), the AC50 in experiment [2] was 6.27 µM (active).

For orientation: IC50 means the midpoint of a concentration-inhibition curve. In the case of `COc1ccc(N2C(=O)/C(=C\NNc3nc(C)cc(C)n3)c3ccccc3C2=O)cc1OC`, the EC50 is 11.8 µM (active) in experiment [3], 11.8 µM (active) in experiment [4] and 9.51 µM (active) in experiment [5]. For the same compound, the IC50 in experiment [6] was 0.594 µM (active); on Beta-galactosidase, > 66.6 µM (inactive).

`Cc1cc(NC(=O)c2cc(Cl)ccc2Cl)no1`: the AC50 in [2] is > 100 µM (inactive).

Take `CN1CCN(c2ccccc2NC(=O)c2ccc(-c3cccc(Cl)c3)o2)CC1`: the IC50 (in experiment [6]; at Beta-galactosidase) was > 66.6 µM (inactive) throughout.

Consider `CCCCc1ccc(/C=C2\C(=O)c3ccccc3C(O)=C2C(=O)OCC)cc1`, for which the IC50 in experiment [7] was 17.8 µM (active); in experiment [8], 5.63 µM (active); in [9], 16.2 µM (active).

Regarding `COc1ccc(NC(=O)c2ccc(-c3ccc(C(C)=O)cc3)o2)cn1`, the IC50 against Protein Rev was 16.4 µM (not active); in experiment [10], 9.1 µM (active).

What is called CC50 is the concentration giving 50% cytotoxicity. Turning to `CCCCN(C(=O)c1ccccc1Cl)c1nc(-c2ccc(OC)cc2)cs1`, the CC50 in the experiment with Vero [11] is > 100 µM (active); with Vero [12], > 40 µM (active). Besides, the IC50 in experiment [13] was > 66.6 µM (active).

Consider `CN1CCN(c2ccc(-c3ccc4ccccc4n3)cc2)CC1`, for which the EC50 in experiment [3] was < 0.195 µM (active); in [14] it was 134 nM (active); in the experiment “cells” it was 123 nM (active); in experiment [4] it was < 0.1 µM (active); in experiment [15], < 160 nM (active); in [5] it was < 0.1 µM (active). Moreover, the EC50 was 953 nM (active) in [16], 1.66 µM (active) in experiment [17] and 39 nM (active) in experiment [19]. Also, the IC50 was 26.6 µM (not active) in experiment [18] and > 25 µM (active) in the experiment on Vero [20]. Further, the CC50 in the experiment on Vero [21] is > 25 µM (active). Besides, the figures for the AC50 in experiment [22] and in experiment [23] were 2.73 µM (active) and 22.6 µM (active), respectively.

On to `Cc1cc2ccccc2c(=O)n1CC(=O)NCC(=O)N1CCN(c2ccccc2)CC1`, for which the EC50 in experiment [1] is > 10 µM (not active).

Take `CCN1C/C(=C/c2cccs2)c2nc3ccccc3c(C(=O)O)c2C1`: the IC50 is 17 µM (not active) against Protein Rev and 9.41 µM (active) in experiment [10]. For the same compound, the EC50 in [24] was 39.2 µM (active); in experiment [25] it was 31.9 µM (active).
